Experimental data from patent US11466012B2, “Tetrahydroisoquinoline compounds” (ALLINKY BIOPHARMA, priority 2018, dated 2022).

Legend:
[1] = system: PANC-1 epithelioid carcinoma of the pancreas cell line bearing KRas^G12D oncogenic mutation; assay: Cell proliferation inhibition (MTS), PANC-1; format: cell-based; settings: Homo sapiens
Protocol: (§1) • Cell line #1: A549. Lung carcinoma cell line bearing KRas^G12S oncogenic mutation • Cell line #2: H358. non-small cell lung cancer line bearing KRas^G12C oncogenic mutation • Cell line #3: PANC-1. epithelioid carcinoma of the pancreas cell line bearing KRas^G12D oncogenic mutation • Cell line #4: RPMI. myeloma cell line bearing KRas^G12A oncogenic mutation
(§2) Cell lines were cultured in DMEM or RPMI-1640 supplemented with FBS 10%. In order to assess the antiproliferative effect of compounds, cells were seeded at a density of 1.8×10^3, 6.2×10^3, 7.8×10^3, 21×10^3 and 2×10^3 cells/cm^2, respectively, in tissue culture microplates and were incubated in humidified atmosphere at 5% CO2. 24 h later, compounds dissolved in DMSO 100% were added for different final concentrations ranging between 0.1 and 50 μM for a final DMSO concentration of 0.5% and the plates were incubated for another 72 h. After incubation, proliferation was quantified using CellTiter 96® Aqueous Non-Radioactive Cell Proliferation Assay-MTS (Promega #G5421) following manufacturer instructions. Amount of 490 nm absorbance is directly proportional to the number of living cells. Absorbance was recorded with a BMG Fluostar Optima Microplate Reader and normalized to control with vehicle.

[2] = system: NCI-H358 human lung cancer xenograft; assay: Subcutaneous NCI-H358 human lung cancer xenograft model in NOD/SCID mice; format: in vivo; settings: for Tolerability / safety in tumor bearing mice: 10 mg/kg b.i.d. i.p.; for Mean tumor volume: PG-D22 (Day 22 after first dosing), Compound 18 10 mg/kg Bid x 22 day, cisplatin 3.5 mg/kg BIW x 3.5 week, vehicle 630 mm^3; for Mean tumor volume / Tumor growth inhibition (TGI) / Number of mice (of 6) whose body weight loss (BWL) reached 10%: i.p.; for Tumor growth inhibition (TGI) / Anti-tumor effect compared with vehicle group: PG-D22; for Tumor growth inhibition (TGI): TGI=100x(1-T/C), Compound 18 10 mg/kg Bid; for Tumor growth inhibition (TGI) / Number of mice (of 6) whose body weight loss (BWL) reached 10%: cisplatin 3.5 mg/kg BIW; for Anti-tumor effect compared with vehicle group: group-2 p=0.026, group-3 p=0.019; for Number of mice (of 6) whose body weight loss (BWL) reached 10%: tumor bearing mice, compound 18 10 mg/kg Bid
Description: Evaluation of the Efficacy of compound 18 in the Treatment of Subcutaneous NCI-H358 Human Lung Cancer Xenograft Model in NOD/SCID Mice
The treatments were started when the mean tumor size reached 141 mm^3. The test article administration and the animal numbers in each study group are shown in the following experimental design table.
Tumor growth inhibition (TGI): TGI (%) is an indication of antitumor effectiveness, and expressed as: TGI (%)=100×(1−T/C). T and C were the mean tumor volume of the treated and control groups, respectively, on a given day.

[3] = system: H358 non-small cell lung cancer line bearing KRas^G12C oncogenic mutation; assay: Cell proliferation inhibition (MTS), H358; format: cell-based; settings: Homo sapiens, NCI-H358
Protocol: as §1, §2

[4] = system: RPMI-8226 myeloma cell line bearing KRas^G12A oncogenic mutation; assay: Cell proliferation inhibition (MTS), RPMI-8226; format: cell-based; settings: Homo sapiens
Protocol: as §1, §2

NIH-H358 cell line = assay: 3D CellTiter-Glo cell viability assay; format: cell-based; settings: 168 h, 7 days' compound treatment, 0.65% methylcellulose
Protocol: The protocol to perform 3D CellTiter-Glo™ cell viability assay is as follows:
Day −1: Cell Plating • Adjust cell concentrations to 1×10^5 cells/ml with respective medium. (Cell concentration is adjusted according to data base or density optimization assay). Mix 3.5 mL of cell suspension 6.5 mL of 1% methylcellulose. Mix and wait for bubbles to disperse before pipetting. This step yields 10 ml of cell suspension in 0.65% methylcellulose solution. Add 99.5 μL cell suspensions to 96-well plates according to plate map with final cell density. • Two duplicate plates will be set up. One is for day 0 reading (T0) and the other will be cultured in incubator for reading at the end point. • Incubate the plates overnight in humidified incubator at 37° C. with 5% CO2.
Day 0: T0 plate reading and compound treatment • Take T0 plate, add 0.5 μL culture medium to each well for T0 reading. • Add 100 μl CellTiter-Glo® Reagent to each well. • Mix contents for 2 minutes on an orbital shaker to facilitate cell lysis. • Allow the plate to incubate at room temperature for 10 minutes to stabilize luminescent signal. • Record luminescence using EnVision Multi Label Reader. • Dilute the test articles at the concentration indicated at Test Articles Dilution. Add 0.5 μL of each 200× compound working solutions according to plate inoculation map.
Day 7: Plate reading of 7 days' compound treatment • Add 100 μL CellTiter-Glo® Reagent to each well. • Mix contents for 2 minutes on an orbital shaker to facilitate cell lysis. • Allow the plate to incubate at room temperature for 10 minutes to stabilize luminescent signal. • Record luminescence using EnVision Multi Label Reader.

KRas = KRas (Homo sapiens, UniProt P01116); assay: Equilibrium dissociation constant by surface plasmon resonance; format: binding; settings: SPRi, immobilised KRas, 4° C.
Chain of KRas (P01116 1-188 isoform P01116-2): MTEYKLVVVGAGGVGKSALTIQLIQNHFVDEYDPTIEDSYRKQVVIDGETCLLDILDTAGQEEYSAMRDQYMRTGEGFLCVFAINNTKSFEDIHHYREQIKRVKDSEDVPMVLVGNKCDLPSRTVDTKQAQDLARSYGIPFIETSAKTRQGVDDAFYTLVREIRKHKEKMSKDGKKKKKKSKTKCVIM
Protocol: Various concentrations of KRas dissolved in water were manually printed onto bare gold-coated (thickness 47 nm) PlexArray Nanocapture Sensor Chips (Plexera Bioscience, Seattle, Wash., US) at 40% humidity. Each concentration was printed in replicate, and each spot contained 0.2 μL of KRas solution. The chip was incubated in 80% humidity at 4° C. for overnight, and rinsed with 10×PBST for 10 min, 1×PBST for 10 min, and deionized water twice for 10 min. The chip was then blocked with 5% (w/v) non-fat milk in water overnight, and washed with 10×PBST for 10 min, 1×PBST for 10 min, and deionized water twice for 10 min before being dried under a stream of nitrogen prior to use. SPRi measurements
were performed with PlexAray HT (Plexera Bioscience, Seattle, Wash., US). Collimated light (660 nm) passes through the coupling prism, reflects off the SPR-active gold surface, and is received by the CCD camera. Buffers and samples were injected by a non-pulsatile piston pump into the 30 μL flowcell that was mounted on the coupling prim. […] The signal changes after binding and washing (in AU) are recorded as the assay value. Selected protein-grafted regions in the SPR images were analyzed, and the average reflectivity variations of the chosen areas were plotted as a function of time. Real-time binding signals were recorded and analyzed by Data Analysis Module (DAM, Plexera Bioscience, Seattle, Wash., US). […]

[5] = system: A549 lung carcinoma cell line bearing KRas^G12S oncogenic mutation; assay: Cell proliferation inhibition (MTS), A549; format: cell-based; settings: Homo sapiens
Protocol: as §1, §2

[6] = 72 h incubation, MTS, compounds 1-53, median from experimental results
[7] = compounds 54-63, based on estimations and/or preliminary experimental results

| Compound | IC50 [1, 6] [nM] | IC50 [3, 6] [nM] | IC50 [4, 6] [nM] | IC50 (NIH-H358 cell line) [nM] | IC50 [5, 6] [nM] | other results |
| --- | --- | --- | --- | --- | --- | --- |
| COc1cc2c(cc1OCCc1cccc(O)c1)C(c1ccc(C)cc1C)N(C(=O)NCc1cocn1)CC2 (centres unmarked) [Compound 18, 1-(2,4-dimethylphenyl)-7-(3-hydroxyphenethoxy)-6-methoxy-N-(oxazol-4-ylmethyl)-3,4-dihydroisoquinoline-2(1H)-carboxamide] | 1590 | 1660 | 1210 | 370 | 1970 | Tolerability / safety in tumor bearing mice [2]: tolerate; Tolerability / safety in tumor bearing mice ([2]; listed as compound 18): safe; Mean tumor volume [2]: 238 mm^3; Tumor growth inhibition (TGI) [2]: about 62%; Anti-tumor effect compared with vehicle group [2]: significant anti-tumor effects; Anti-tumor effect compared with vehicle group ([2]; listed as compound 18): significant anti-tumor activities; Number of mice (of 6) whose body weight loss (BWL) reached 10% [2]: one; Kd (KRas): 8.8 nM; koff (KRas; read-out: Kd (dissociation rate constant)): 0.00103 s⁻¹ |
| COc1cc2c(cc1OCCc1cccnc1)C(c1ccc(C)cc1C)N(C(=O)NCc1cocn1)CC2 (centres unmarked) [Compound 23] | 490 | 590 | 620 | 390 | 550 |  |
| N.N.[Cl][Pt][Cl] [Cisplatin, reference compound] |  |  |  |  |  | Mean tumor volume [2]: 231 mm^3; Tumor growth inhibition (TGI) [2]: about 63%; Anti-tumor effect compared with vehicle group [2]: significant anti-tumor effects; Number of mice (of 6) whose body weight loss (BWL) reached 10% [2]: 4 |
| Cc1ccc(C2c3cc(OCCc4cccnc4)c(C)cc3CCN2C(=O)NCc2cocn2)c(C)c1 (centres unmarked) [Compound 42] | 620 | 1210 | 320 | 10100 | 490 |  |
| Cc1ccc(C2c3cc(OCCc4cccc(F)c4)c(O)cc3CCN2C(=O)NCc2cocn2)c(C)c1 (centres unmarked) [Compound 26] | 1150 | 1010 | 790 | 9350 | 2020 |  |
| Cc1ccc(C2c3cc(OCCc4cccnc4)c(C(N)=O)cc3CCN2C(=O)NCc2cocn2)c(C)c1 (centres unmarked) [Compound 34, 1-(2,4-dimethylphenyl)-N2-(oxazol-4-ylmethyl)-7-(2-(pyridin-3-yl)ethoxy)-3,4-dihydroisoquinoline-2,6(1H)-dicarboxamide] | 420 | 390 | 720 |  | 430 |  |
| COc1cc2c(cc1OCCc1cnccn1)C(c1ccc(C)cc1C)N(C(=O)NCc1cocn1)CC2 (centres unmarked) [Compound 53] | 700 | 700 | 500 |  | 600 |  |
| COc1cc2c(cc1OCCc1ccc(C)nc1)C(c1ccc(C)cc1C)N(C(=O)NCc1cocn1)CC2 (centres unmarked) [Compound 57] |  |  |  |  |  | IC50 [1, 7]: 500 nM; IC50 [3, 7]: 600 nM; IC50 [4, 7]: 600 nM; IC50 [5, 7]: 600 nM |
| Cc1ccc(C2c3cc(OCCc4cccnc4)c(CO)cc3CCN2C(=O)NCc2cocn2)c(C)c1 (centres unmarked) [Compound 41] | 2110 | 1140 | 1380 |  | 1270 |  |
| COc1cc2c(cc1OCCc1cccc(O)c1)C(c1c(O)cc(C)cc1Cl)N(CCC(C)=O)CC2 (centres unmarked) [Compound 5] | > 30000 | > 20000 | 1510 |  | 4820 |  |
| Cc1ccc(C2c3cc(OCCc4cccnc4)c(F)cc3CCN2C(=O)NCc2cocn2)c(C)c1 (centres unmarked) [Compound 44] | 1000 | 1010 | 990 |  | 1720 |  |

Second part, led by results:

| IC50 [1, 6] [nM] | IC50 [3, 6] [nM] | IC50 [4, 6] [nM] | IC50 (NIH-H358 cell line) [nM] | IC50 [5, 6] [nM] | Compound | other results |
| --- | --- | --- | --- | --- | --- | --- |
| 1830 | 2110 | 1910 |  | 2070 | COc1cc2c(cc1OCCc1cccc(C(=O)O)c1)C(c1ccc(C)cc1C)N(C(=O)NCc1cocn1)CC2 (centres unmarked) [Compound 31] |  |
| 500 | 600 | 600 | 334 | 500 | CCNC(=O)N1CCc2cc(OC)c(OCCc3cnccn3)cc2C1c1ccc(C)cc1C (centres unmarked) [Compound 51] |  |
| 560 | 480 | 600 |  | 750 | COc1cc2c(cc1OCCc1cccc(O)c1)C(c1ccc(C)cc1C)N(C(=O)NCc1ccccn1)CC2 (centres unmarked) [Compound 20] |  |
| 500 | 800 | 800 | 373 | 800 | CCNC(=O)N1CCc2cc(OC)c(OCCc3cccc(N)c3)cc2C1c1ccc(C)cc1C (centres unmarked) [Compound 50] |  |
| 1830 | 3100 | 1740 | 620 | 3520 | CCNC(=O)N1CCc2cc(OC)c(OCCc3cccc(O)c3)cc2C1c1ccc(C)cc1C (centres unmarked) [Compound 17] |  |
| 810 | 780 | 900 |  | 1330 | COc1cc2c(cc1OCCc1cccc(F)c1)C(c1ccc(C)cc1C)N(C(=O)NCc1cocn1)CC2 (centres unmarked) [Compound 21] |  |
| 700 | 700 | 500 | 842 | 600 | CCNC(=O)N1CCc2cc(OC)c(OCCc3cccnc3)cc2C1c1ccc(C)cc1C (centres unmarked) [Compound 46] |  |
